Test results: DBAASP
In brackets after ≈: the same amount, converted by molar mass. Several values for one entry are separate records, joined by “and”; a condition that tells them apart may be missing. Identical values can stand only once. One block for each compound: values may come before it.

How the values were obtained:
Assay in all cases: ≥ marks a high value that may be exact or a test limit, other limits are often not marked, values filed in µg/mL are converted to µM
Escherichia coli HB101 = test system: Escherichia coli HB101
[1] = test system: Corynebacterium glutamicum ATCC 13032
[2] = test system: Escherichia coli ATCC 25922
[3] = test system: Pseudomonas aeruginosa ATCC 27853
[4] = test system: Staphylococcus aureus ATCC 9144
[5] = test system: Bacillus subtilis ATCC 62037
[6] = test system: Escherichia coli ATCC 27325
[7] = test system: Saccharomyces cerevisiae ATCC 44774
[8] = test system: Candida albicans ATCC 10231
[9] = test system: Salmonella enterica subsp. enterica serovar Enteritidis ATCC 13076
[10] = test system: Staphylococcus aureus ATCC 15752
[11] = test system: Pseudomonas putida ATCC 17426
[12] = test system: Streptococcus mutans ATCC 25175
Escherichia coli ML-35 = test system: Escherichia coli ML-35
Bacillus megaterium Bm11 = test system: Bacillus megaterium Bm11
[13] = test system: Staphylococcus epidermidis ATCC 12228
Escherichia coli D21 = test system: Escherichia coli D21
[14] = test system: Salmonella enterica subsp. enterica serovar Typhimurium ATCC 14028
[15] = test system: Serratia marcescens ATCC 8100
Bacillus subtilis PS832 = test system: Bacillus subtilis PS832
[16] = test system: Klebsiella aerogenes ATCC 13048
Escherichia coli DL7 = test system: Escherichia coli DL7
[17] = test system: Staphylococcus aureus ATCC 25923
[18] = test system: Cryptococcus neoformans ATCC 34881
[19] = test system: Bacillus subtilis KCTC 1918
[20] = test system: Staphylococcus aureus KCTC 1621
[21] = test system: Pseudomonas aeruginosa KCTC 1637
[22] = test system: Salmonella typhimurium KCTC 1926
[23] = test system: Staphylococcus epidermidis KCTC 1917
[24] = test system: Saccharomyces cerevisiae KCTC 7296
[25] = test system: Escherichia coli KCTC 1682
[26] = test system: Trichosporon beigelii KCTC 7707
[27] = test system: Candida albicans KCTC 7270
[28] = test system: Enterococcus faecium ATCC 700221
[29] = test system: Staphylococcus aureus ATCC 33591
[30] = test system: Acinetobacter baumannii ATCC BAA-1605
[31] = test system: Klebsiella pneumoniae ATCC 700603

SMILES: CC[C@H](C)[C@H](NC(=O)[C@@H]1CCCN1C(=O)[C@H](CCCCN)NC(=O)[C@@H]1CCCN1C(=O)[C@H](CCCN=C(N)N)NC(=O)CNC(=O)[C@@H]1CCCN1C(=O)[C@H](Cc1ccccc1)NC(=O)[C@@H]1CCCN1C(=O)[C@H](CCCN=C(N)N)NC(=O)[C@@H]1CCCN1C(=O)[C@H](CCCN=C(N)N)NC(=O)CNC(=O)[C@@H]1CCCN1C(=O)[C@@H](N)CO)C(=O)N[C@@H](Cc1ccccc1)C(=O)N[C@@H](CCCN=C(N)N)C(=O)N1CCC[C@H]1C(=O)N[C@@H](CCCN=C(N)N)C(=O)O [SPGRPRPFPGRPKPIFRPR]
MIC (Escherichia coli HB101): ≥ 100 µM | MIC [1]: 6.3 µM (≈ 14 µg/mL) | MIC [2]: > 100 µM | MIC [3]: > 100 µM | MIC [4]: ≥ 100 µM

SMILES: CC(C)C[C@H](NC(=O)[C@H](Cc1ccc(O)cc1)NC(=O)[C@@H]1CCCN1C(=O)[C@@H]1CCCN1C(=O)[C@H](CCCN=C(N)N)NC(=O)[C@@H]1CCCN1C(=O)[C@H](CC(N)=O)NC(=O)[C@H](CC(N)=O)NC(=O)[C@@H](N)CC(N)=O)C(=O)N1CCC[C@H]1C(=O)N[C@@H](CCCN=C(N)N)C(=O)N1CCC[C@H]1C(=O)N[C@@H](CCCN=C(N)N)C(=O)N1CCC[C@H]1C(=O)N1CCC[C@H]1C(=O)O [NNNPRPPYLPRPRPP]
MIC (Escherichia coli ML-35): ≥ 64 µM | MIC (Bacillus megaterium Bm11): ≥ 64 µM | MIC [13]: > 64 µM | MIC (Escherichia coli D21): ≥ 64 µM | MIC [14]: > 64 µM | MIC [15]: ≥ 64 µM

SMILES: CC(C)C[C@H](NC(=O)[C@H](CCCCN)NC(=O)[C@H](C)NC(=O)[C@H](CC(C)C)NC(=O)[C@H](CCCCN)NC(=O)[C@H](CCCCN)NC(=O)[C@H](C)NC(=O)[C@H](CC(C)C)NC(=O)[C@H](CCCCN)NC(=O)[C@H](C)NC(=O)[C@H](CC(C)C)NC(=O)[C@H](CCCCN)NC(=O)[C@H](Cc1cnc[nH]1)NC(=O)[C@H](C)NC(=O)[C@@H](N)CC(=O)O)C(=O)N[C@@H](C)C(=O)N[C@@H](CCCCN)C(N)=O [DAHKLAKLAKKLAKLAK]
MIC (Bacillus subtilis PS832): 0.25 µM and 0.5 µM | MIC [13]: 4 µM (≈ 7.39 µg/mL) | MIC [16]: ≥ 32 µM | MIC (Escherichia coli DL7): 0.25 µM (≈ 0.462 µg/mL)

SMILES: CC(C)C[C@H](NC(=O)[C@H](CCCCN)NC(=O)[C@H](C)NC(=O)[C@H](CC(C)C)NC(=O)[C@H](CCCCN)NC(=O)[C@H](CCCCN)NC(=O)[C@H](C)NC(=O)[C@H](CC(C)C)NC(=O)[C@H](CCCCN)NC(=O)[C@H](C)NC(=O)[C@H](CC(C)C)NC(=O)[C@@H](N)CCCCN)C(=O)N[C@@H](C)C(=O)N[C@@H](CCCCN)C(N)=O [KLAKLAKKLAKLAK]
MIC (Bacillus subtilis PS832): 0.5 µM and 0.25 µM | MIC [13]: 4 µM (≈ 6.09 µg/mL) | MIC [16]: ≥ 32 µM | MIC (Escherichia coli DL7): 1 µM (≈ 1.52 µg/mL) | MIC [2]: 6 µM (≈ 9.14 µg/mL) | MIC [3]: 6 µM (≈ 9.14 µg/mL) | MIC [17]: 6 µM (≈ 9.14 µg/mL)

SMILES: CC[C@H](C)[C@H](NC(=O)[C@H](CCCCN)NC(=O)[C@H](CCCCN)NC(=O)[C@H](Cc1ccccc1)NC(=O)[C@H](CC(C)C)NC(=O)[C@H](CCCN=C(N)N)NC(=O)[C@@H](N)CCCN=C(N)N)C(=O)N[C@@H](CC(C)C)C(=O)N[C@@H](CCCCN)C(=O)N[C@@H](Cc1ccc(O)cc1)C(=O)N[C@@H](CC(C)C)C(N)=O [RRLFKKILKYL]
MIC [28]: 11.5 µM (≈ 17 µg/mL) | MIC [29]: 23.3 µM (≈ 34.5 µg/mL) | MIC [30]: 3.04 µM (≈ 4.5 µg/mL) | MIC [2]: 23.3 µM (≈ 34.5 µg/mL) | MIC [3]: 11.5 µM (≈ 17 µg/mL) | MIC [31]: 11.5 µM (≈ 17 µg/mL)

Next, values leading:

MIC [5]: 0.717 µM (≈ 2 µg/mL) | MIC [6]: 1.43 µM (≈ 4 µg/mL) | MIC [7]: 0.179 µM (≈ 0.5 µg/mL) | MIC [8]: 0.179 µM (≈ 0.5 µg/mL) | MIC [9]: 0.717 µM (≈ 2 µg/mL) | MIC [10]: 0.717 µM (≈ 2 µg/mL) | MIC [11]: 1.43 µM (≈ 4 µg/mL) | MIC [12]: 0.717 µM (≈ 2 µg/mL)
SMILES: CC[C@H](C)[C@H](NC(=O)[C@@H]1CCCN1C(=O)[C@H](Cc1c[nH]c2ccccc12)NC(=O)[C@H](CCC(N)=O)NC(=O)[C@H](CCCN=C(N)N)NC(=O)[C@@H](NC(=O)[C@@H](NC(=O)[C@@H](N)CCCN=C(N)N)C(C)C)C(C)C)C(=O)NCC(=O)N[C@@H](CCCN=C(N)N)C(=O)N[C@H](C(=O)N[C@H](C(=O)N[C@@H](CCCN=C(N)N)C(=O)N[C@@H](CCCN=C(N)N)C(=O)N[C@H](C(=O)N[C@H](C(=O)N[C@@H](CCCN=C(N)N)C(=O)N[C@@H](CCCN=C(N)N)C(=O)N[C@H](C(=O)N[C@H](C(=O)N[C@@H](CCCN=C(N)N)C(=O)N[C@@H](Cc1ccccc1)C(=O)O)C(C)C)C(C)C)C(C)C)C(C)C)C(C)C)C(C)C [RVVRQWPIGRVVRRVVRRVVRF]

MIC [5]: 2.04 µM (≈ 4 µg/mL) | MIC [6]: 4.08 µM (≈ 8 µg/mL) | MIC [7]: 8.17 µM (≈ 16 µg/mL) | MIC [8]: 16.3 µM (≈ 32 µg/mL) | MIC [9]: 16.3 µM (≈ 32 µg/mL) | MIC [10]: 8.17 µM (≈ 16 µg/mL) | MIC [11]: 8.17 µM (≈ 16 µg/mL) | MIC [12]: 16.3 µM (≈ 32 µg/mL) | MIC [18]: 2.04 µM (≈ 4 µg/mL)
SMILES: CC(C)[C@H](NC(=O)[C@H](CCCCN)NC(=O)CNC(=O)CNC(=O)[C@H](CCC(N)=O)NC(=O)[C@H](CCCCN)NC(=O)CNC(=O)[C@H](CCCN=C(N)N)NC(=O)CNC(=O)[C@@H](N)CO)C(=O)N[C@@H](CCCN=C(N)N)C(=O)N[C@@H](C)C(=O)N[C@@H](CCCCN)C(=O)N[C@@H](C)C(=O)N[C@@H](CCCCN)C(=O)N[C@H](C(=O)N[C@@H](CCCN=C(N)N)C(=O)N[C@@H](CO)C(=O)N[C@@H](CO)C(=O)O)[C@@H](C)O [SGRGKQGGKVRAKAKTRSS]

MIC [19]: 2.21 µM (≈ 3.61 µg/mL) | MIC [20]: 6.25 µM (≈ 10.2 µg/mL) | MIC [21]: 1.56 µM (≈ 2.55 µg/mL) | MIC [22]: 0.78 µM (≈ 1.28 µg/mL) | MIC [23]: 6.25 µM (≈ 10.2 µg/mL) | MIC [24]: 8.84 µM (≈ 14.5 µg/mL) | MIC [25]: 3.12 µM (≈ 5.11 µg/mL) | MIC [26]: 1.56 µM (≈ 2.55 µg/mL) | MIC [27]: 25 µM (≈ 40.9 µg/mL)
SMILES: CC[C@H](C)[C@H](NC(=O)[C@H](CCCCN)NC(=O)[C@H](CO)NC(=O)[C@H](Cc1ccccc1)NC(=O)[C@H](CC(C)C)NC(=O)[C@H](CCCCN)NC(=O)[C@H](CCC(=O)O)NC(=O)[C@H](CC(C)C)NC(=O)[C@H](CCCN=C(N)N)NC(=O)[C@H](CCCCN)NC(=O)[C@H](Cc1ccccc1)NC(=O)[C@@H](NC(=O)[C@@H](N)CCCCN)C(C)C)C(N)=O [KVFKRLEKLFSKI]
